Results on 55 compounds are retold here after PubChem BioAssay AID1645862 (Buhrlage Lab, Dana-Farber Cancer Institute and Novartis …, 2021).

Each structure is given as a SMILES string. Activity calls are given as the source filed them. How the calls were made is not given here.

The assay addresses Ubiquitin carboxyl-terminal hydrolase 8 (Homo sapiens) (UniProt P40818). As to the kind of experiment: Ubiquitin-specific protease 8 inhibitors, concentration-effect, biochemical, validation of initial actives (AID 1645862).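 Further: potency reflects inhibition of USP8 cleavage of a ubiquitin rhodamine substrate.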 The note with it: recombinant USP8 deubiquitinase activity assay.

Chain of Ubiquitin carboxyl-terminal hydrolase 8 (Homo sapiens) (P40818 whole entry, looked up): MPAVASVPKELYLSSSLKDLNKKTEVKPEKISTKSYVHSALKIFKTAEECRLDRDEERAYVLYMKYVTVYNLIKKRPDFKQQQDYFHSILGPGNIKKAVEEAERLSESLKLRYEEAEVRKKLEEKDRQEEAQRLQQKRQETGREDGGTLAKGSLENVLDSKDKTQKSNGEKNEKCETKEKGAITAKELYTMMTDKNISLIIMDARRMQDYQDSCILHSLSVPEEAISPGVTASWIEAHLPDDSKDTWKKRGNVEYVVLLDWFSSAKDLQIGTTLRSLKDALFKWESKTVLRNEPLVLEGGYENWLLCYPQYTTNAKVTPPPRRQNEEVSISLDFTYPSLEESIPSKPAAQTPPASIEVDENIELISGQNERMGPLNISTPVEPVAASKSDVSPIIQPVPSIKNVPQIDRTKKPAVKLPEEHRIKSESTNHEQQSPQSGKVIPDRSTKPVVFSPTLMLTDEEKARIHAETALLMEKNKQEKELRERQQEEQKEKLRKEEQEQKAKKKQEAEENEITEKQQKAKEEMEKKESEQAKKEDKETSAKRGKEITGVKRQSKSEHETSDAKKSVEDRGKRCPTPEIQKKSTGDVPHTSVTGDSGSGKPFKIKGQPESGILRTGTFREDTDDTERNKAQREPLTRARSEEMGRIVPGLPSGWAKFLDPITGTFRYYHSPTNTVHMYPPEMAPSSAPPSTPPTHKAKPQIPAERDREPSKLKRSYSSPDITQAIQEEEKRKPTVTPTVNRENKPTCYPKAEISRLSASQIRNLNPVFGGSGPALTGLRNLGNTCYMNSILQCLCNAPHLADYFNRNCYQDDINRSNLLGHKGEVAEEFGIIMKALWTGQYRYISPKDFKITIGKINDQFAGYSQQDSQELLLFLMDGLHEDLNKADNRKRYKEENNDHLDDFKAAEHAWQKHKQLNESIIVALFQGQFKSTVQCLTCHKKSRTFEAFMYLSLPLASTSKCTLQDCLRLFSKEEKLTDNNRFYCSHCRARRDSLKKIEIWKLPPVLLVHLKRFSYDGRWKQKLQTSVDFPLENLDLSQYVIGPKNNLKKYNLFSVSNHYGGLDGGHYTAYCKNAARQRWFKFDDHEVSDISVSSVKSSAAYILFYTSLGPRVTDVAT

The IC50 is the concentration needed to halve the response being measured. With `Cc1ccc(CNC(=O)CCCn2c(=O)c3sccc3n(CC(=O)Nc3cc(Cl)ccc3C)c2=O)cc1`, the IC50 was > 40 µM (inactive). For the compound `COc1ccc(NC(=O)Cn2c(=O)n(CCCC(=O)NCCc3ccc(OC)c(OC)c3)c(=O)c3ccccc32)cc1Cl`, the IC50 was > 40 µM (inactive).

Regarding `O=C(CCCc1nnc2c(=O)n(-c3cccc(F)c3)ccn12)NCc1ccc(Cl)cc1`, the IC50 is > 40 µM (inactive).

With `O=C(COC(=O)c1ccc(NS(=O)(=O)c2ccc(F)c(F)c2)cc1)Nc1ccc(OCc2ccccc2)cc1`, the IC50 was > 40 µM (inactive). For `O=c1[nH]cccc1NS(=O)(=O)c1ccc(F)cc1`, the IC50 was > 40 µM (inactive).

As to `Cc1nnc(NC(=O)C2CC(=O)N(CCc3ccc(F)cc3)C2)s1` (stereo not given), the IC50 was > 40 µM (inactive). `CCn1cc2c(n1)c(=O)n(Cc1ccc(C)cc1)c(=O)n2CC(=O)Nc1ccc(F)cc1`: the IC50 is > 40 µM (inactive).

On to `COc1cc(C(=O)Nc2ccc(C#N)cc2)ccc1OCC(=O)Nc1ccccc1C(F)(F)F`, for which the IC50 was > 40 µM (inactive). As for `COc1ccc(NC(=O)Cn2cc(C(=O)c3ccc(F)cc3)c(=O)c3cc(C)ccc32)cc1`, the IC50 is > 40 µM (inactive). For `Cc1c(C(=O)OCC(=O)Nc2ccc3c(c2)OCO3)oc2ccc(Br)cc12`, the IC50 is > 40 µM (inactive). Regarding `C[C@@H]1OC2=C(C(=O)c3cccc(O)c3C2=O)[C@H](O)[C@@H]1O`, the half-inhibitory concentration (IC50) was 0.825 µM. To `O=C(Cn1c(=O)n(Cc2ccc3c(c2)OCO3)c(=O)c2cccnc21)Nc1ccc(F)cc1` belongs > 40 µM (inactive); to `O=C(Cn1nc2c3c4c(sc3ncn2c1=O)CCCCC4)Nc1ccc(Cl)cc1F`, 26.1 µM; to `N#C/C(=C\c1ccc(OCc2cccc(C(=O)O)c2)cc1)c1ccc(F)cc1`, > 40 µM (inactive). Regarding `O=C(Cn1c(=O)n(-c2ccccc2)c(=O)c2ccc(C(=O)NCc3ccc4c(c3)OCO4)cc21)NCCC1=CCCCC1`, the IC50 was > 40 µM (inactive). Consider `C/C=C/C=C/[C@@H]1Cc2cc(O)cc(O)c2O1`, for which the IC50 is 20.2 µM. In the case of `O=C(Cn1c(-c2nc(-c3cccc(F)c3)no2)cccc1=O)NCc1ccco1` it was > 40 µM (inactive); in that of `O=C(/C=C/c1ccc(F)cc1)N1CCc2ccccc2C1`, 26 µM; in that of `Cc1ccc(Cn2nnc3c(=O)[nH]c(C4CCN(S(=O)(=O)c5ccc(S(=O)(=O)NC6CCCC6)cc5)CC4)nc32)cc1`, > 40 µM (inactive). In the case of `N=C1/C(=C/c2cn(Cc3ccccc3F)c3ccccc23)C(=O)N=C2SC(C(F)(F)F)=NN12` it was > 40 µM (inactive); in that of `COc1ccc(Cl)cc1NC(=O)Cn1c(=O)n(CCCCC(=O)NCCc2ccccc2)c(=O)c2ccccc21`, > 40 µM (inactive); in that of `CCNS(=O)(=O)c1ccc(-c2ccc(-n3cnnn3)cc2)cc1`, > 40 µM (inactive). Regarding `Cc1cccc(C(=O)OCC(=O)Nc2ccc3[nH]c(=O)[nH]c3c2)c1C`, the IC50 was > 40 µM (inactive). On to `O=C(CCn1c(=O)c2ccccc2n(CC(=O)OCc2ccccc2)c1=O)NCc1ccc2c(c1)OCO2`, for which the IC50 is > 40 µM (inactive). Regarding `O=C(c1cccnc1)N1CCCC(Cc2cc(-c3ncc[nH]3)ncn2)C1` (stereo not given), the IC50 was > 40 µM (inactive). Take `O=C(NC1CCCCCC1)c1cccc(S(=O)(=O)Nc2cc(C(F)(F)F)ccc2Cl)c1`: the IC50 was > 40 µM (inactive). To `Cc1nc2nc(C(c3ccccc3)c3ccccc3)[nH]n2c(=O)c1Cc1ccccc1` belongs > 40 µM (inactive); to `Cc1ccc(NC(=O)Nc2ccccc2OCc2cc(=O)n3cc(C)ccc3n2)cc1`, > 40 µM (inactive). Regarding `O=C(c1ccco1)N1CCCC1c1nc(-c2ccccc2)n[nH]1` (stereo not given), the IC50 was > 40 µM (inactive).

In the case of `COc1ccc(NC(=O)Cn2c(=O)n(CCCCC(=O)NCc3ccco3)c(=O)c3ccccc32)cc1Cl`, the IC50 was > 40 µM (inactive). Regarding `COc1ccc(Cl)cc1NC(=O)Cn1c(=O)n(CCCC(=O)NCc2ccc(C)cc2)c(=O)c2sccc21`, the IC50 is > 40 µM (inactive). For the compound `Cc1nc(N2CCCC2)ncc1-c1cc(=O)[nH]c(Nc2ccc(Cl)cc2Cl)n1`, the IC50 was > 40 µM (inactive). In the case of `COc1ccc(-n2c(=O)c3ccc(C(=O)NCCc4ccccc4)cc3n(CC(=O)NCCC3=CCCCC3)c2=O)cc1` it was > 40 µM (inactive). Regarding `COc1ccc(C)cc1NC(=O)C1CC(=O)Nc2nc3ccccc3n21` (stereo not given), the IC50 was > 40 µM (inactive). In the case of `Cc1cc(NC(=O)CSc2ncc(-c3cccc([N+](=O)[O-])c3)n2-c2cccc(Cl)c2)no1` it was > 40 µM (inactive); in that of `O=C(Nc1ccccc1-c1nc(-c2ccccn2)no1)c1cc(Cl)ccc1Cl`, > 40 µM (inactive); in that of `COc1ccc(OC)c(NC2=NS(=O)(=O)C(c3cccc(Br)c3)=C2C)c1`, > 40 µM (inactive). To `O=C(Cn1cc(C(=O)c2ccc(F)cc2)c(=O)c2ccccc21)Nc1ccc2c(c1)OCO2` belongs > 40 µM (inactive); to `CCCn1c(=O)c(-c2ccc(C(=O)NCc3ccc(OC)cc3)cc2)nc2cccnc21`, > 40 µM (inactive); to `Cc1ccc(CNC(=O)c2cccc(N3C(=O)N4CCc5c([nH]c6ccccc56)[C@@]4(C)C3=O)c2)cc1`, > 40 µM (inactive). As for `O=C(Cn1c(=O)[nH]c2c(-c3ccc(F)cc3)c[nH]c2c1=O)NCc1ccc(F)cc1`, the IC50 is > 40 µM (inactive).

In the case of `C[C@@H]1CO[C@@H]2C3=C(C(=O)C=CC3=O)[C@H]3OC(=O)[C@@H]4CCC5[C@@H]1CCC52C34` (stereo not given in full), the concentration for half-maximal inhibition (IC50) was 25 µM. `Cc1ccc(CNC(=O)c2ccc3nn(CC(=O)Nc4ccccc4F)c(=O)n3c2)cc1`: the IC50 is > 40 µM (inactive). As to `COc1cc(OC)cc(-c2nc(-c3cn(-c4cccc(F)c4)nn3)no2)c1`, the half-maximal inhibitory concentration (IC50) is 33 µM. In the case of `O=C(Nc1ccncc1)c1cn(Cc2ccccc2)cc2c(=O)n(-c3ccccc3)nc1-2`, the IC50 was > 40 µM (inactive). For the compound `Cc1cc(C)c(NC(=O)CSc2nc3nccnc3c(=O)n2Cc2ccccc2Cl)c(C)c1`, the IC50 is > 40 µM (inactive). As to `N#Cc1cc(C(=O)c2cc(Cl)ccc2O)cn(-c2ccccn2)c1=O`, the IC50 was > 40 µM (inactive). Regarding `O=c1[nH]c(C2CCN(S(=O)(=O)c3ccc(S(=O)(=O)NC4CCCCC4)cc3)CC2)nc2c1nnn2Cc1ccc(F)cc1`, the IC50 was > 40 µM (inactive). Turning to `Cc1ccc(C(=O)NCc2ccc(C(=O)Nc3ccc(Cl)cc3)o2)cc1`, the IC50 is > 40 µM (inactive). In the case of `CC(=O)Nc1ccc(Cc2nc(-c3ccc4c(c3)nc(C)c(=O)n4C3CCCC3)no2)cc1`, the IC50 is > 40 µM (inactive). In the case of `O=C(Cc1nnc(NC(=O)Nc2ccc3c(c2)OCO3)s1)NCc1ccccc1` it was > 40 µM (inactive).

As to `CCOc1ccc(NS(=O)(=O)c2ccc(NC(=O)Nc3ccccc3)cc2)cc1`, the IC50 is > 40 µM (inactive).

For `Cc1ccc2[nH]cc(S(=O)(=O)c3cc(F)cc(F)c3)c(=O)c2c1`, the IC50 is > 40 µM (inactive). `COc1ccc(NC(=O)Cn2cc(C(=O)c3ccc(F)cc3)c(=O)c3cc(C)ccc32)cc1OC`: the IC50 is > 40 µM (inactive). To `Cc1c(Cl)cccc1NC(=O)Cn1cc(C(=O)C2CC2)c2ccccc21` belongs > 40 µM (inactive).
